Test results taken from patent US20130095174A1, “Compositions and Methods for Transmucosal Delivery of Lofexidine” (US WORLDMEDS, LLC, priority 2008, published 2013).

Test: In vivo absorption of lofexidine from the sublingual cavity (pharmacokinetics, sublingual vs intravenous)
Parameters: species or system rabbit
Procedure: These experiments determine the bioavailability of lofexidine after transmucosal administration to the sublingual tissue in rabbit and compare it to that after intravenous administration.
The transmucosal absorption of lofexidine was measured using an in vivo technique in rabbits. Following introduction of lidocaine local anesthesia, a catheter was placed in the marginal ear artery of the rabbit for blood sample collection. For intravenous administration, a catheter was placed in the marginal ear vein of the rabbit and lofexidine hydrochloride aqueous solution (0.1 mL) was administered; a sterile drug solution was prepared by filtration (double 0.22 μm filters). A dose of 1 mg/kg lofexidine was injected into the marginal ear vein cannula followed by a 0.1 mL flush with 10% (v/v) heparin/normal saline solution to keep the cannula patent.
For sublingual administration, the lofexidine dose (1 mg/kg, 0.1 mL) of the lofexidine formulation was applied to the sublingual mucosa of the rabbit.
Aliquot parts of 1 mL blood samples were collected at predetermined time points, collected into pre-heparinized tubes and immediately placed on ice. Plasma was separated by centrifugation at 3000 rpm for 10 min, placed in polypropylene tubes, and frozen at −20° C. until the time of analysis.
Bioavailability of sublingually administered drug was calculated by comparing the plasma drug concentration between sublingual and intravenous delivery routes and expressed as a percentage of the intravenous bioavailability.
The formulation instilled into the sublingual area of the rabbits in this experiment had the following composition: • Lofexidine hydrochloride 6000 mg • Isopropanol 2 mL • Phosphate buffer (0.05 M, pH 6)
The lofexidine is dissolved in the isopropanol and the phosphate buffer to make the volume up to 200 mL.
The internal standard (IS) solution was prepared by dissolving d^4-lofexidine in a methanol:water (50:50) mixture to get a (1000 ng/mL) concentration. Plasma samples (50 μL) were spiked with IS solution (10 μL), followed by vortex mixing for 1 minute. The mixture was mixed with acetonitrile (50 μL) to precipitate plasma proteins and allowed to vortex for another minute. After centrifugation for 10 minute at 10,000 rpm, the supernatant was collected into HPLC vials in preparation for analysis by Ultra Performance Liquid Chromatography Mass Spectroscopy (UPLC/MS) system.
All analytical procedures were performed using a Waters Acquity® Ultra UPLC/MS. An Acquity UPLC BEH Shield RP18 (2.1×100 mm) column (Waters) was used to separate the chemical components at 40° C. The flow rate was 0.3 mL/min of two mobile phases, (A) made of 5 mM ammonium acetate (pH 4) and acetonitrile (90:10) and (B) of acetonitrile, 5 mM ammonium acetate (pH 4) (90:10). The mass spectrometer was operated in the positive electrospray ionization (ESI) mode. The capillary voltage and cone voltage were maintained at 0.6 kV and 35 V, respectively. The source temperature and desolvation temperature were set at 100 and 350° C., respectively. Nitrogen was used as both the cone gas (50 L/h) and the desolvation gas (700 L/h). Mass chromatograms and mass spectral data were acquired and processed by MassLynx software (Waters).

[1] = rabbit, sublingual administration, 1 mg/kg single dose, rabbits (n = 3), plasma, average

bioavailability (rabbit, other: sublingual (transmucosal), sublingual vs intravenous, 1 mg/kg, rabbits, from areas under the plasma concentration versus time curves, read-out: bioavailability (of the administered dose, relative to intravenous)): ~80%
Tmax (rabbit, sublingual administration, 1 mg/kg single dose, rabbits (n = 3), plasma): 10 min
Cmax [1]: 392 ± 127 ng/mL
half-life [1]: 75 ± 2.7 min
time of peak plasma concentration following transmucosal administration (sublingual route, 1 mg/kg, rabbits): approximately 10 minutes
absorption following transmucosal administration through the sublingual route (sublingual, 1 mg/kg, rabbits, comparing AUCs with intravenous): rapidly and completely absorbed
Compound: CC(Oc1c(Cl)cccc1Cl)C1=NCCN1 (stereo not drawn) [lofexidine, 2-[1-(2,6 dichlorophenoxy)ethyl]-4,5-dihydro-1H-Imidazole]
